# Source: PMC11581978, “Paenilamicins are context-specific translocation inhibitors of protein synthesis” (Nature Chemical Biology, 2024)
# Key:
# [1] = test system: Escherichia coli in vitro translation; conditions: well-known translation inhibitors; read-out: IC50; cited from earlier work
# From the text: The accordance of structural features of paenilamicins with the translation inhibitor edeine (Extended Data Fig. 1c) led to the hypothesis that paenilamicins may also exert their antimicrobial activity by binding to the ribosome and inhibiting protein synthesis. […] The best understood context-specific translation inhibitors are those that target the large subunit, where their inhibitory action is influenced by the sequence of the nascent polypeptide chain being synthesized, for example, macrolides and ketolides[30]–[32] ...
# [2] = test system: ribosomes translating ErmBL mRNA; assay: Toeprinting on ErmBL mRNA templates (Figs. 4a and 5c); assay type: biochemical, E. coli; conditions: for ribosome stalling on wildtype ErmBL mRNA: mupirocin present, in duplicate
# Experimental: Toeprinting reactions for Figs. 4a and 5c were performed as described previously. Briefly, reactions were performed with 5 μl of PURExpress in vitro protein synthesis system. The reactions contained 0.1 pmol of the respective DNA template (Supplementary Table 2) and were supplemented with retapamulin, erythromycin, mupirocin or PamB2 as specified. The transcription–translation reactions were incubated 20 min at 37 °C. Subsequently, reverse transcription was performed for 10 min at 37 °C using AMV RT and the radiolabeled NV*1-primer. Reactions were stopped by the addition of 1 µl of 10 M NaOH and then neutralized with 0.8 µl of concentrated HCl. Subsequently, 200 µl of the stop buffer (0.3 M sodium acetate (pH 5.5), 5 mM EDTA and 0.5% SDS) was added and phenol extraction was performed. The obtained complementary DNA was precipitated in ethanol for subsequent gel electrophoresis.
# [3] = test system: EF-G-dependent translocation on the ribosome; assay: Translocation assay (toeprinting, MFKAFK template); assay type: biochemical; conditions: EF-G present; tRNAfMet in P-site, N-AcPhe-tRNAPhe in A-site; in duplicate
# Experimental: Translocation assays were performed as previously described[22] using the MFKAFK template[45] (Supplementary Table 2). Reactions were prepared by incubating tight-coupled ribosomes (0.7 µM) with mRNA (0.5 µM) and tRNAi^Met (1 µM) for 20 min at 37 °C in the Pure System Buffer (5 mM potassium phosphate (pH 7.3), 9 mM Mg(OAc)2, 95 mM potassium glutamate, 5 mM NH4Cl, 0.5 mM CaCl2, 1 mM spermidine, 8 mM putrescine and 1 mM dithiothreitol) and for additional 10 min at 37 °C with 2 μM of N-acetyl-Phe-tRNA^Phe. At the time of N-acetyl-Phe-tRNA^Phe addition, the reactions were supplemented with PamB2 or negamycin as specified. The translocation reaction was initiated by addition of 1 µl of EF-G–GTP mixture (1.2 µM and 3.2 mM). After 5 min of incubation at 30 °C, 2 µl of reverse transcriptase and/or dNTPs mixture was added. The reactions were stopped after another 5 min at 30 °C by addition of 200 µl of the stop buffer and subsequent phenol extraction. The obtained complementary DNA was precipitated in ethanol for subsequent gel electrophoresis.
# [4] = test system: EF-G-dependent translocation on the ribosome; design: method as in PMID 25306922; conditions: cited from earlier work
# [5] = test system: E. coli ribosomes translating MLIFstop-mRNA; assay: Toeprinting assay on MLIFstop-mRNA; assay type: biochemical; conditions: 100 µM, positive control, toeprinting in duplicate
# From the text: To investigate how paenilamicins inhibit translation, we generated PamB2-stalled ribosome complexes (PamB2-SRC) for single-particle cryo-EM analysis. Rather than forming complexes on vacant ribosomes, or with predefined functional states, we instead aimed to use more physiological complexes where translating ribosomes become stalled by PamB2. To achieve this, we performed in vitro translation reactions with E. coli ribosomes using the Met-Leu-Ile-Phe-stop-mRNA (MLIFstop-mRNA), a model template that we had previously used to successfully determine structures of drosocin-stalled ribosomal complexes. Toeprinting was used to monitor the position of ribosomes on the MLIFstop-mRNA in the presence of increasing concentrations of synthetic PamB2 (Extended Data Fig. 2). […] (Extended Data Fig. 2). […] (Extended Data Fig. 2).
# Toeprinting reactions for Fig. 4b and Extended Data Fig. 2 were performed as described previously. Briefly, reactions were performed with 6 μl of PURExpress in vitro protein synthesis system (New England Biolabs). The reactions were carried out with different primers and templates (Supplementary Tables 2 and 3). The reactions contained 340 ng of the respective mRNA template and were supplemented with the different compounds as specified. The translation reactions were incubated for 30 min at 37 °C. […]
molecule,measurement,setting,value
"O=C(N[C@H](CO)[C@H](O)c1ccc([N+](=O)[O-])cc1)C(Cl)Cl [chloramphenicol, reference compound]",IC50,[1],1 µM
"CC[C@H]1OC(=O)[C@H](C)[C@@H](O[C@H]2C[C@@](C)(OC)[C@@H](O)[C@H](C)O2)[C@H](C)[C@@H](O[C@@H]2O[C@H](C)C[C@H](N(C)C)[C@H]2O)[C@](C)(O)C[C@@H](C)C(=O)[C@H](C)[C@@H](O)[C@]1(C)O [erythromycin, reference compound]",IC50,[1],0.75 µM
same,ribosome stalling on wildtype ErmBL mRNA,[2]; 50 µM,accumulation of ribosomes stalled with the tenth CAU codon (encoding Asp) in the P-site
"C/C(=C\C(=O)OCCCCCCCCC(=O)O)C[C@@H]1OC[C@H](C[C@@H]2O[C@H]2[C@@H](C)[C@H](C)O)[C@@H](O)[C@H]1O [mupirocin, reference compound]","ribosome trapping at twelfth codon (AUC, Ile) of ErmBL mRNA","[2]; Ile-tRNA synthetase inhibitor added to all reactions, concentration not given",become trapped
"CN(CC(=O)O)NC(=O)C[C@H](N)C[C@@H](O)CN [negamycin, reference compound]",EF-G dependent translocation (toeprint shift),[3],little to no shift in the toeprint band
same,interference with translocation,[4],interfere with translocation
"C=C[C@]1(C)C[C@@H](OC(=O)CS[C@@H]2C[C@H]3CC[C@@H](C2)N3C)[C@]2(C)[C@H](C)CC[C@]3(CCC(=O)[C@H]32)[C@@H](C)[C@@H]1O [retapamulin, reference compound]",ribosome stalling on wildtype ErmBL mRNA,[2]; 50 or 100 µM,traps ribosomes on the AUG start codon
"CN(C)[C@@H]1C(O)=C(C(N)=O)C(=O)[C@@]2(O)C(O)=C3C(=O)c4c(O)cccc4[C@@](C)(O)[C@H]3C[C@@H]12 [tetracycline, reference compound]",IC50,[1],10 µM
thiostrepton [reference compound],ribosome stalling on MLIFstop-mRNA,[5],a single strong band is observed that corresponds to ribosomes trapped on the AUG start codon
